From ChEMBL document CHEMBL1158334, “Two new chymotrypsin inhibitors isolated from the Cyanobacterium Microcystis aeruginosa NIES-88” (J Nat Prod, 2005)

Columns and labels:
[1] = Inhibition of chymotrypsin
[2] = Inhibition of trypsin

Structure (SMILES) | IC50 [1] [µM] | IC50 [2] [µM]
CC[C@H](C)[C@@H]1NC(=O)[C@H](Cc2ccc(O)cc2)N(C)C(=O)[C@H](Cc2ccccc2)N2C(=O)[C@H](CC[C@H]2O)NC(=O)[C@H](Cc2ccccc2)NC(=O)[C@@H](NC(=O)[C@@H](O)COP(=O)(O)O)[C@@H](C)OC1=O [MICROPEPTIN T 20] | 2500 | > 100
CCCCCC(=O)N[C@@H](CC(=O)O)C(=O)N[C@@H]1C(=O)N[C@@H](CCCNC(=N)N)C(=O)N[C@H]2CC[C@@H](O)N(C2=O)[C@@H]([C@@H](C)CC)C(=O)N(C)[C@@H](CC(=O)c2ccccc2N)C(=O)N[C@@H](C(C)C)C(=O)O[C@@H]1C [MICROPEPTIN SD999] | > 100 | 4
CCCCCC(=O)N[C@@H](CC(=O)O)C(=O)N[C@@H]1C(=O)N[C@@H](CCCCN)C(=O)N[C@H]2CC[C@@H](O)N(C2=O)[C@@H]([C@@H](C)CC)C(=O)N(C)[C@@H](Cc2ccc(O)cc2)C(=O)N[C@@H](C(C)C)C(=O)O[C@@H]1C [MICROPEPTIN SD944] | > 100 | 8.5
CCCCCC(=O)N[C@@H](CC(=O)O)C(=O)N[C@@H]1C(=O)N[C@@H](Cc2ccc(O)cc2)C(=O)N[C@H]2CC[C@@H](O)N(C2=O)[C@@H]([C@@H](C)CC)C(=O)N(C)[C@@H](Cc2c[nH]c3ccccc23)C(=O)N[C@@H](C(C)C)C(=O)O[C@@H]1C [MICROPEPTIN SD1002] | 3.2 | > 100
CC[C@H](C)[C@@H]1NC(=O)[C@H](Cc2ccc(O)cc2)N(C)C(=O)[C@H]([C@H](C)O)N2C(=O)[C@H](CC[C@H]2O)NC(=O)[C@H](CC(C)C)NC(=O)[C@@H](NC(=O)[C@H](CCC(N)=O)NC(=O)[C@H](CCc2ccc(O)cc2)NC(=O)[C@H](O)CO)[C@@H](C)OC1=O [OSCILLAPEPTIN G] | 4 | > 100
CCCC(=O)N[C@@H](Cc1ccc(O)cc1)C(=O)N[C@@H](CCC(=O)N[C@@H]1C(=O)N[C@@H](C[C@H]2C=C[C@H](O)CC2)C(=O)N[C@H]2CC[C@@H](O)N(C2=O)[C@@H](C(C)C)C(=O)N(C)[C@@H](Cc2ccccc2)C(=O)N[C@@H]([C@@H](C)CC)C(=O)O[C@@H]1C)C(=O)O [MICROPEPTIN 88 D] | 9 | > 100
CC(C)CC(NC(=O)[C@H](O)COS(=O)(=O)O)C(=O)N[C@@H]1C(=O)N[C@@H](CCCNC(=N)N)C(=O)N[C@H]2CC[C@@H](O)N(C2=O)[C@@H](CC(C)C)C(=O)N(C)[C@@H](Cc2ccc(O)cc2)C(=O)N[C@@H](C(C)C)C(=O)O[C@@H]1C (single isomer, unassigned) | > 100 | 0.001
CC[C@H](C)[C@@H]1NC(=O)[C@H](Cc2ccccc2)N(C)C(=O)[C@H](C(C)C)N2C(=O)[C@H](CC[C@H]2O)NC(=O)[C@H](Cc2ccc(O)cc2)NC(=O)[C@@H](NC(=O)CC[C@H](NC(=O)[C@H](Cc2ccc(O)cc2)NC(C)=O)C(=O)O)[C@@H](C)OC1=O [MICROPEPTIN 88 Y] | 1.3 | > 100
CCCCCC(=O)N[C@@H](CC(=O)O)C(=O)N[C@@H]1C(=O)N[C@@H](Cc2ccc(O)cc2)C(=O)N[C@H]2CC[C@@H](O)N(C2=O)[C@@H]([C@@H](C)CC)C(=O)N(C)[C@@H](Cc2ccc(O)cc2)C(=O)N[C@@H](C(C)C)C(=O)O[C@@H]1C [MICROPEPTIN SD979] | 2.5 | > 100
CC[C@H](C)[C@H](NC(=O)[C@H](O)Cc1ccc(O)cc1)C(=O)N[C@@H](CCO)C(=O)N[C@@H]1C(=O)N[C@@H](CCO)C(=O)N[C@H]2CC[C@@H](O)N(C2=O)[C@@H](Cc2ccccc2)C(=O)N(C)[C@@H](Cc2ccc(O)cc2)C(=O)N[C@@H](C(C)C)C(=O)O[C@@H]1C [NOSTOCYCLIN] | > 100 | > 100
CC(C)[C@@H]1NC(=O)[C@H](Cc2ccc(O)cc2)N(C)C(=O)[C@H](Cc2ccccc2)N2C(=O)[C@H](CC[C@H]2O)NC(=O)[C@H](CCCNC(=N)N)NC(=O)[C@@H](NC(=O)[C@@H](O)COS(=O)(=O)O)[C@@H](C)OC1=O [MICROPEPTIN 90] | > 100 | 0.02
CCCC(=O)N[C@@H](Cc1ccc(O)cc1)C(=O)N[C@@H](CCC(=O)N[C@@H]1C(=O)N[C@@H](Cc2ccc(O)cc2)C(=O)N[C@H]2CC[C@@H](O)N(C2=O)[C@@H](C(C)C)C(=O)N(C)[C@@H](Cc2ccccc2)C(=O)N[C@@H]([C@@H](C)CC)C(=O)O[C@@H]1C)C(=O)OC [MICROPEPTIN 88 F] | 3.4 | > 100
CCCC(=O)N[C@@H](Cc1ccc(O)cc1)C(=O)N[C@@H](CCC(=O)N[C@@H]1C(=O)N[C@@H](CCC(=O)O)C(=O)N[C@H]2CC[C@@H](O)N(C2=O)[C@@H](C(C)C)C(=O)N(C)[C@@H](Cc2ccccc2)C(=O)N[C@@H]([C@@H](C)CC)C(=O)O[C@@H]1C)C(=O)O [MICROPEPTIN 88 B] | > 100 | > 100
CCCCCCCC(=O)N[C@@H](CCC(=O)O)C(=O)N[C@@H]1C(=O)N[C@@H](CCCCN)C(=O)N[C@H]2CC[C@@H](O)N(C2=O)[C@@H](CC(C)C)C(=O)N(C)[C@@H](Cc2ccc(O)cc2)C(=O)N[C@@H](C(C)C)C(=O)O[C@@H]1C [MICROPEPTIN A] | > 100 | 0.07
CCCC(=O)N[C@@H](Cc1ccc(O)cc1)C(=O)N[C@@H](CCC(=O)N[C@@H]1C(=O)N[C@@H](CC(C)C)C(=O)N[C@H]2CC[C@@H](O)N(C2=O)[C@@H](C(C)C)C(=O)N(C)[C@@H](Cc2ccccc2)C(=O)N[C@@H]([C@@H](C)CC)C(=O)O[C@@H]1C)C(=O)O [MICROPEPTIN 88 E] | 5 | > 100
CCCC(=O)N[C@@H](Cc1ccc(O)cc1)C(=O)N[C@@H](CCC(=O)N[C@@H]1C(=O)N[C@@H](Cc2ccc(O)cc2)C(=O)N[C@H]2CC[C@@H](O)N(C2=O)[C@@H](C(C)C)C(=O)N(C)[C@@H](Cc2ccccc2)C(=O)N[C@@H]([C@@H](C)CC)C(=O)O[C@@H]1C)C(=O)O [MICROPEPTIN 88 C] | 4.6 | > 100
CC[C@H](C)[C@@H]1NC(=O)[C@H](Cc2ccc(OC)cc2)N(C)C(=O)[C@H]([C@@H](C)CC)N2C(=O)[C@H](CC[C@H]2O)NC(=O)[C@H](CCc2ccc(O)cc2)NC(=O)[C@@H](NC(=O)[C@H](CCc2ccc(O)cc2)NC(=O)[C@@H](COS(=O)(=O)O)OC)[C@@H](C)OC1=O [OSCILLAPEPTIN] | 1.9 | > 100
